Laboratory results from paper PMC4920374 (Bioorganic & medicinal chemistry, 2016).
Like-named read-outs stand apart in the source and are kept apart here. Values belong to the compound of their own block, whether it stands above or below them.

Tests used:
[1] = system: KB-vin (vincristine-resistant KB subline); assay: Antiproliferative SRB assay, KB-vin; format: cell-based, human
[2] = system: KB (epidermoid carcinoma of the nasopharynx); assay: Antiproliferative SRB assay, KB; format: cell-based, human
Mer TK = conditions: cited from earlier work
DU145 (prostate cancer) = assay: Antiproliferative SRB assay, DU145; format: cell-based; conditions: Homo sapiens, DU-145, read-out: GI50 DU145
[3] = system: A549 (human lung carcinoma); assay: Antiproliferative SRB assay, A549; format: cell-based; conditions: A549, read-out: GI50 A549
[4] = paclitaxel reference, values in nM

- GI50 KB-vin ([1]; SRB): >31300 nM
- GI50 KB ([2]; SRB): >31300 nM
SMILES: N#Cc1ccc(Nc2nc(NC3CCCC3)c3ccccc3n2)cc1 [6a, 2-(4-Cyanophenyl)amino-4-(N-cyclopentyl)aminoquinazoline]

- GI50 KB-vin ([1]; SRB): 18700 nM
- GI50 KB ([2]; SRB): 19700 nM
SMILES: Nc1ccc(Nc2nc(NCCCO)c3ccccc3n2)cc1 [7b]

- GI50 KB-vin ([1]; SRB): 24200 nM
- GI50 KB ([2]; SRB): 17100 nM
SMILES: OCCCNc1nc(Nc2ccc(F)cc2)nc2ccccc12 [7c, 2-(4-Fluorophenyl)amino-4-(3-hydroxypropyl)aminoquinazoline]

SMILES: CC(C)n1cnc2/c(=N/c3cccc(Cl)c3)nc(NCCO)[nH]c21 [C-52]
- Mer inhibitory potency (Mer TK; literature Mer inhibitors): weak

- GI50 (DU145 (prostate cancer)): 2.6 nM
- GI50 KB-vin [1, 4]: 948 nM
- GI50 KB [2, 4]: 2.6 nM
- GI50 [3]: 4.9 nM
SMILES: CC(=O)O[C@H]1C(=O)[C@@]2(C)[C@H]([C@H](OC(=O)c3ccccc3)[C@]3(O)C[C@H](OC(=O)[C@H](O)[C@@H](NC(=O)c4ccccc4)c4ccccc4)C(C)=C1C3(C)C)[C@]1(OC(C)=O)CO[C@@H]1C[C@@H]2O [Paclitaxel]

SMILES: CCCCNc1ncc2c(-c3ccc(F)cc3)nn(CC3CCC(N)CC3)c2n1 (stereo not shown) [UNC569]
- Mer inhibitory potency (Mer TK): subnanomolar

SMILES: CCCCNc1ncc(C(=O)NCc2ccc(-n3ccnc3)cc2)c(NC2CCC(O)CC2)n1 (stereo not shown) [UNC2881]
- Mer inhibitory potency (Mer TK): subnanomolar
